Patent US10682345B2, “Muscarinic antagonists and combinations thereof for the treatment of airway disease in horses” (Boehringer Ingelheim Vetmedica GmbH, priority 2014, dated 2020)

Experiments:
Hm3 = Hm3 (Homo sapiens, UniProt P20309); test: Binding to Hm3 receptor (mean KD, dissociation half-life)
[1] = Kallos-Pagel Model, effects vs. tiotropium; assay type: in vivo
RAO horses [2] = test: Phase I and IV: mouldy hay challenge, single inhaled administration, lung function for 24 h; assay type: in vivo, horse
Experimental: LAMA 1 is investigated in two RAO horses at different phases or periods as part of a mouldy hay challenge study. The horses are challenged every day by exposure to mouldy hay. LAMA 1 is administered via the Equine Inhaler device at different doses or formulations. Lung function parameters (change in transpulmonary pressure (ΔPL), lung resistance (RL) and lung elastance (EL)) are measured for 24 h. A single administration of 800 μg LAMA 1 (8 actuations in aqueous formulation) is performed per inhalation to two RAO horses (ID numbers: 312 and 91) in phase I. Two RAO horses are treated with LAMA 1 in phase IV (ID numbers: 40 and 91), which can be divided into three periods. 2000 μg LAMA 1 (20 actuations in aqueous formulation) is administered per inhalation in period 1. 2000 μg LAMA 1 ([…] in ethanolic formulation) is administered per inhalation in period 2. 2000 μg LAMA 1 (20 actuations in ethanolic formulation) is administered per inhalation in period 3.

RAO horses [3] = test: Phase II: cross-over, blinded mouldy hay challenge study, 7 days treatment; assay type: in vivo, horse; details: for EL values over time / ΔPL values over time: Days 4 and 8 compared to Day 1; for RL values over time: clenbuterol group and 800 μg LAMA 1 group
Experimental: LAMA 1 is investigated in a cross-over, blinded mouldy hay challenge study. 8 RAO horses are examined in the study, which is divided into an acclimation and a treatment phase. Placebo for LAMA 1 is administered once daily per inhalation via the Equine Inhaler device to all horses for 1 week in the acclimation period. LAMA 1 and clenbuterol are administered to the horses in a cross-over design in the treatment phase. The horses are challenged by exposure to mouldy hay throughout the acclimation and treatment phases. LAMA 1 is administered with the doses of 200 μg (2 actuations)/400 μg (4 actuations)/800 μg (8 actuations)/horse (ex-RESPIMAT®) once daily for 7 days per inhalation via the Equine Inhaler device. Nozzle A and a commercially available RESPIMAT® is used in the study. Clenbuterol is administered with a dose of 0.8 μg/kg per os, twice daily for 7 days. Lung function variables (change in transpulmonary pressure (ΔPL), lung resistance (RL) and lung elastance (EL)), breathing effort score, Borborygmi score, blood gas analysis are examined during the study.

healthy horses = test: Phase III: ECG measurements for 48 h after single inhalation; assay type: in vivo, horse; details: single 800 μg inhalation, aqueous formulation, two healthy horses
Experimental: A single administration of 800 μg LAMA 1 (8 actuations in aqueous formulation) is performed per inhalation to two healthy horses in phase III. Subsequently, ECG measurements are done for 48 h.

[4] = 800 μg group, Day 7 compared to Day 0
[5] = day 4, all LAMA 1 groups (200, 400, 800 μg)

Sequence of Hm3 (P20309 whole entry): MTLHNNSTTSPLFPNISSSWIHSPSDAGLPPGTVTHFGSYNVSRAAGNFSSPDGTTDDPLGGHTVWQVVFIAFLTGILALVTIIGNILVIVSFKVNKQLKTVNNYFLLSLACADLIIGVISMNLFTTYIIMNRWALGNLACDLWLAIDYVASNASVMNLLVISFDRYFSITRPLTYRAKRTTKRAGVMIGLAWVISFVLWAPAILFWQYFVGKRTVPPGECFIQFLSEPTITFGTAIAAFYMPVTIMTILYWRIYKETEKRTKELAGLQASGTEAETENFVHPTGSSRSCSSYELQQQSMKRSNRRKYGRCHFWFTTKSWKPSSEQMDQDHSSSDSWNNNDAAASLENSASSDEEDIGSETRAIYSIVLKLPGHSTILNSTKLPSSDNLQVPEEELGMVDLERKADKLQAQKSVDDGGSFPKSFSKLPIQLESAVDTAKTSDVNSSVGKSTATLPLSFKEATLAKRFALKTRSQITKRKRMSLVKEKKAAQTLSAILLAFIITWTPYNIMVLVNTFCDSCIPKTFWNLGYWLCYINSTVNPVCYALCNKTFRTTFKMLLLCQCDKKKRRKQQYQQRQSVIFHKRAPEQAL

SMILES | Kd (Hm3) | Effects in the Kallos-Pagel Model: protection ([1]; acute and chronic) | Effects in the Kallos-Pagel Model vs. tiotropium: lower efficacy (chronic) ([1]; chronic, vs. tiotropium) | Lung function variables at 24 h after single administration (RAO horses [2]; 24 h, compared with pre-treatment values) | Time until which lung function values continue to drop (RAO horses [2]; depending on lung function parameter, dose or formulation) | Start of decrease in lung function variables (ΔPL, RL, EL) after administration (RAO horses [2]; single inhalation of 800 μg or 2000 μg, aqueous or ethanolic formulation) | pH in arterial blood (RAO horses [3]; [4]) | paCO2 in arterial blood (RAO horses [3]; [4]) | EL values over time (RAO horses [3]) | ΔPL values over time (RAO horses [3]) | Improvement in lung function after one week, compared with clenbuterol (RAO horses [3]; LAMA 1 once daily for one week, clenbuterol twice daily for one week) | RL values over time (RAO horses [3]) | Change in EL 30 min after administration (RAO horses [3]; day 4, 200 and 400 μg LAMA 1) | Change in ΔPL 30 min after administration (RAO horses [3]; day 4, 200 and 400 μg LAMA 1) | EL 30 min after administration vs pre-treatment (RAO horses [3]; [5]) | RL 30 min after administration vs pre-treatment (RAO horses [3]; [5]) | ΔPL 30 min after administration vs pre-treatment (RAO horses [3]; [5]) | ECG: abnormal observation (healthy horses) | ECG: arrhythmias (healthy horses) | Breathing effort score (RAO horses [3]; study day 6, clenbuterol 0.8 μg/kg per os twice daily compared with 2 or 4 actuations of LAMA 1)
CC(C(=O)O[C@H]1CC2C3O[C@@H]3[C@H](C1)[N+]2(C)C)(c1ccccc1)c1ccccc1 (stereo partly drawn) [LAMA 1, (1α,2β,4β,5α,7β)-3-Oxa-9-azoniatricyclo [3.3.1.0^2.4] nonane, 9,9-dimethyl-7-(1-oxo-2,2-diphenylpropoxy)-bromide] | 0.4 nM | 24 h | 10 fold | below or reach the pre-treatment values | 2 to 8 h | 5 min | increases | reduces significantly | None of the treatments (LAMA 1 or clenbuterol) alters significantly | None of the treatments (LAMA 1 or clenbuterol) alters significantly | comparable to the significant improvement in lung function after the twice daily administration of clenbuterol | significantly reduced | statistically significant | statistically significant | decrease | decrease | decrease | Only one observation is classified as either a first-degree heart block with aberrant intraventricular repolarization, or an artifact | Physiological arrhythmias are noted in both horses before and following the administration | –
CC(C)(C)NCC(O)c1cc(Cl)c(N)c(Cl)c1 (centres unmarked) [clenbuterol, reference compound] | – | – | – | – | – | – | – | – | None of the treatments (LAMA 1 or clenbuterol) alters significantly | None of the treatments (LAMA 1 or clenbuterol) alters significantly | – | significantly reduced | – | – | – | – | – | – | – | significantly smaller breathing effort scores
